In article PMC11031590, “Narazaciclib, a novel multi-kinase inhibitor with potent activity against CSF1R, FLT3 and CDK6, shows strong anti-AML activity in defined preclinical models” (Scientific Reports, 2024):
pIC50: −log10 of the molar value. Where two headings read alike, the source gives them in different places.

How the values were obtained:
[1] = tested on: MV-4-11 subcutaneous xenograft; assay: MV-4-11 subcutaneous xenograft model; type: in vivo, NOD/scid mice; conditions: narazaciclib 100 mg/kg intraperitoneally twice per week for 3 weeks
Text: The subcutaneous cell line xenograft (CDX) models and systemic patient-derived xenograft (PDX) models of AML have been extensively described before. For the subcutaneous MV-4-11 CDX model, 5 × 10^6 MV-4-11 tumor cells harvested from exponential growth phase were mixed with Matrigel (1:1) and then inoculated into the right front flank region of 6- to 7-week-old female NOD/scid mice for tumor development. MV-4-11 tumor-bearing mice were randomized into 5 groups (N = 8) when their tumor volume reached approximately 100 mm^3 and received their designated treatments following randomization. Narazaciclib was administrated intraperitoneally at 100 mg/kg twice per week for 3 weeks, while Azacitidine was administrated intraperitoneally at 3 mg/kg twice per week for 3 weeks. For the subcutaneous Ba/F3-ETV6-CSF1R CDX model, 1 × 10^6 Ba/F3-ETV6-CSF1R tumor cells harvested from exponential growth phase were mixed with Matrigel (1:1) and then inoculated into the right front flank region of 6- to 8-week-old female NOD/scid mice for tumor development. Ba/F3-ETV6-CSF1R tumor-bearing mice were randomized into 5 groups (N = 6) when their tumor volume reached approximately 100 mm^3 and received their designated treatments following randomization. […] Tumor volume and body weight were measured at different time points and tumor growth inhibition (TGI) was used as index to determine the therapeutic efficacy.

Ba/F3-FLT3-ITD = Ba/F3-FLT3-ITD proliferation assay; type: cell-based, mouse
Procedure: (§1) The recombinant Ba/F3 cell lines overexpressing human CSF1R, or human RBM6-CSF1R, or human ETV6-CSF1R were generated using a retrovirus vector (Kyinno Co., Ltd. Beijing). The recombinant Ba/F3 lines overexpressing human Kras G12C orEGFR-L718Q mutants, and different mutant variants of FLT3 were also similarly created as well. A standard proliferation assay via CTG readout was performed according to the vendor’s instructions (KYinno Biotechnology Co., Ltd. Beijing).

Ba/F3-EGFR-L718Q = Ba/F3-EGFR-L718Q proliferation assay (CTG); type: cell-based; conditions: Mus musculus
Procedure: as §1

M2 primary macrophages = assay: Primary macrophage proliferation assay; type: cell-based; conditions: Homo sapiens
Procedure: Human primary monocytes were isolated with an EasySep™ monocyte isolation kit (Stem Cell) from cryopreserved human PBMCs. […] Narazaciclib was serially diluted with culture medium to 9 final concentrations from 0.004 µM to 24 µM. The differentiated macrophages were incubated for 7 days at 37 °C followed by incubation with Cell Counting-Lite2.0 reagent (Vazyme) for 5 min on a shaker. Luminescence was recorded […]. The proliferation inhibition IC50 (half maximal inhibition concentration) of narazaciclib was determined by fitting the dose–response data to a four-parameter stimulation model.

AM8096 AML-PDX = assay: AM8096 systemic AML-PDX model; type: in vivo, NOD/scid mice
Procedure: (§2) For systemic AML-PDX models, the model establishment and narazaciclib pharmacology experiment were performed essentially as described previously. Briefly, 2 × 10^6 AM7407 cells, or 2 × 10^6 AM7577 cells, or 2 × 10^6 AM5512 cells, or 1.65 × 10^6 AM8096 cells were inoculated intravenously into 4- to 5-week-old female NOD/scid mice for AML development. Engraftment was confirmed by the presence of circulating human CD45+ cells (anti-human CD45 antibody, Cat. 304038, Biolegend) in peripheral blood. Mice with successful engraftment of AML-PDX were randomized into different treatment groups (N = 6) and received their designated treatments. Narazaciclib was administrated orally or intraperitoneally at 10 mg/kg, or 30 mg/kg, or 100 mg/kg every day throughout the study, while Cytarabine was administrated intraperitoneally at 3 mg/kg every day. Following the initiation of designated treatments, leukemic burden was monitored by flow cytometry with anti-human CD45 antibody on the peripheral blood every week as well as on the peripheral blood, bone marrow cells and splenocytes of mice at sacrifice. Mice were sacrifice once the followings are observed: body weight loss over 20%, reduced motility and activity, labored breathing, ruffled coat, hunched back and severe dehydration.

Ba/F3-KRAS-G12C = Ba/F3-KRAS-G12C proliferation assay (CTG); type: cell-based; conditions: Mus musculus
Procedure: as §1

AM5512 AML-PDX = assay: AM5512 systemic AML-PDX model; type: in vivo, NOD/scid mice; conditions: AM5512, 100 mg/kg orally every day
Procedure: as §2

Ba/F3-FLT3-ITD (D835Y) = Ba/F3-FLT3-ITD (D835Y) proliferation assay; type: cell-based, mouse
Procedure: as §1

Ba/F3-FLT3 = Ba/F3-FLT3 proliferation assay; type: cell-based, mouse
Procedure: as §1

CDK9 = CDK9 (Homo sapiens, UniProt P50750); assay: Additional kinase inhibition panel; type: biochemical
Text: (§3) Supplement 41598_2024_59650_MOESM2_ESM.docx, table 4: Supplemental Table S4. IC50 of Narazaciclib against additional kinases | column: Narazaciclib (µM); Narazaciclib metabolite (µM)

SIK3 = SIK3 (Homo sapiens, UniProt Q9Y2K2); assay: Additional kinase inhibition panel; type: biochemical
Text: as §3

FGFR3 = FGFR3 (Homo sapiens, UniProt P22607); assay: Additional kinase inhibition panel; type: biochemical
Text: as §3

ABL-1 = ABL-1 (Homo sapiens, UniProt P00519); assay: Additional kinase inhibition panel; type: biochemical
Text: as §3

FGFR2 = FGFR2 (Homo sapiens, UniProt P21802); assay: Additional kinase inhibition panel; type: biochemical
Text: as §3

RET = RET (Homo sapiens, UniProt P07949); assay: Additional kinase inhibition panel; type: biochemical
Text: as §3

PDGFRα = PDGFRα (Homo sapiens, UniProt P16234); assay: Additional kinase inhibition panel; type: biochemical
Text: as §3

C-Kit = C-Kit (Homo sapiens, UniProt P10721); assay: Additional kinase inhibition panel; type: biochemical
Text: as §3

PDGFRβ = PDGFRβ (Homo sapiens, UniProt P09619); assay: Additional kinase inhibition panel; type: biochemical
Text: as §3

FGFR4 = FGFR4 (Homo sapiens, UniProt P22455); assay: Additional kinase inhibition panel; type: biochemical
Text: as §3

Chain of PDGFRα (P16234 24-1089): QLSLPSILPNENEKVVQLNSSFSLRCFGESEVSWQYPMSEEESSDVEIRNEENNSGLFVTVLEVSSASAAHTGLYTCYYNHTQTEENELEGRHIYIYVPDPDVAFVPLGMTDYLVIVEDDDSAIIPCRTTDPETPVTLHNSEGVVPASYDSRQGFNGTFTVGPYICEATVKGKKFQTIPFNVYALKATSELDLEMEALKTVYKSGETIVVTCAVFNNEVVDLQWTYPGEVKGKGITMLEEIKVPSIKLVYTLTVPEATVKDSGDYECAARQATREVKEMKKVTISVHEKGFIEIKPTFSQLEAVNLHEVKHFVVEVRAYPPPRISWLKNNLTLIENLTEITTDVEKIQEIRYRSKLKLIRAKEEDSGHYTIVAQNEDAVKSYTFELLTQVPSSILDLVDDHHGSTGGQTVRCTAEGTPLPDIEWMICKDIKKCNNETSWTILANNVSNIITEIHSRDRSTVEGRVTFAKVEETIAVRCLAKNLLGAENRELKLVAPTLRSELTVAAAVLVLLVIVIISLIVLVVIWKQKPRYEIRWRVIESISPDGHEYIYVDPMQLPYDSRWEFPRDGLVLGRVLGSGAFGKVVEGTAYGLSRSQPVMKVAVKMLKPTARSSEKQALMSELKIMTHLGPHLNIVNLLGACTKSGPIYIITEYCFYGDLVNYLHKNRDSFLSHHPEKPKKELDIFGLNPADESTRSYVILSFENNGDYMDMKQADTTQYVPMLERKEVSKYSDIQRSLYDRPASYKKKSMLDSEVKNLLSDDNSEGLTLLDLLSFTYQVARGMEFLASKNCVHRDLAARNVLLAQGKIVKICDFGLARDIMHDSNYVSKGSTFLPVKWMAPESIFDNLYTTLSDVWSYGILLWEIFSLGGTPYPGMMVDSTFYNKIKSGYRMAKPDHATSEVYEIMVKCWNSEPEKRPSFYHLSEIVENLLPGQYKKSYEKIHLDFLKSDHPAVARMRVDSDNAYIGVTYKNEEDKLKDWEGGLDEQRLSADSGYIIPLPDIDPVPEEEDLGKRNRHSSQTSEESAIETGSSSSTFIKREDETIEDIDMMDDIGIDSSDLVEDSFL
Chain of FGFR3 (P22607 23-806): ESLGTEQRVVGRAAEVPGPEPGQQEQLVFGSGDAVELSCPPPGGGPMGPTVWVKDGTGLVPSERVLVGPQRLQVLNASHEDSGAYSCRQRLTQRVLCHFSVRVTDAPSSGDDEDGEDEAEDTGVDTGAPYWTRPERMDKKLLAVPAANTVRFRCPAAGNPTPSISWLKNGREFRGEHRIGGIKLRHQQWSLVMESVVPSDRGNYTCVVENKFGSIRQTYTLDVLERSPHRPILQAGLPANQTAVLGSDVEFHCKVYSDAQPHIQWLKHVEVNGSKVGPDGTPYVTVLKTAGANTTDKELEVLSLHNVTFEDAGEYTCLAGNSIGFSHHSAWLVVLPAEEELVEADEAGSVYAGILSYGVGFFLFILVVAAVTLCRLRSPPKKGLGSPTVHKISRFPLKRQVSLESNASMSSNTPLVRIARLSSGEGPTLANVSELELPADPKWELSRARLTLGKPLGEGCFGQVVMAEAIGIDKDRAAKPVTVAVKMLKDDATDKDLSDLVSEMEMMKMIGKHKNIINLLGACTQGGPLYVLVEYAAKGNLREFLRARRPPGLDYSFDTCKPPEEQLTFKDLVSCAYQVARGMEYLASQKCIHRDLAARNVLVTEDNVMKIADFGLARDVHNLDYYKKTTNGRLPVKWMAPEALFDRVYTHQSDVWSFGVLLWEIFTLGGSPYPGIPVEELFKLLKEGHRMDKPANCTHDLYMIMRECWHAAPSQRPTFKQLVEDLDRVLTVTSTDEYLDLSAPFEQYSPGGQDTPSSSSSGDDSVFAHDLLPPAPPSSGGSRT
Chain of ABL-1 (P00519 whole entry): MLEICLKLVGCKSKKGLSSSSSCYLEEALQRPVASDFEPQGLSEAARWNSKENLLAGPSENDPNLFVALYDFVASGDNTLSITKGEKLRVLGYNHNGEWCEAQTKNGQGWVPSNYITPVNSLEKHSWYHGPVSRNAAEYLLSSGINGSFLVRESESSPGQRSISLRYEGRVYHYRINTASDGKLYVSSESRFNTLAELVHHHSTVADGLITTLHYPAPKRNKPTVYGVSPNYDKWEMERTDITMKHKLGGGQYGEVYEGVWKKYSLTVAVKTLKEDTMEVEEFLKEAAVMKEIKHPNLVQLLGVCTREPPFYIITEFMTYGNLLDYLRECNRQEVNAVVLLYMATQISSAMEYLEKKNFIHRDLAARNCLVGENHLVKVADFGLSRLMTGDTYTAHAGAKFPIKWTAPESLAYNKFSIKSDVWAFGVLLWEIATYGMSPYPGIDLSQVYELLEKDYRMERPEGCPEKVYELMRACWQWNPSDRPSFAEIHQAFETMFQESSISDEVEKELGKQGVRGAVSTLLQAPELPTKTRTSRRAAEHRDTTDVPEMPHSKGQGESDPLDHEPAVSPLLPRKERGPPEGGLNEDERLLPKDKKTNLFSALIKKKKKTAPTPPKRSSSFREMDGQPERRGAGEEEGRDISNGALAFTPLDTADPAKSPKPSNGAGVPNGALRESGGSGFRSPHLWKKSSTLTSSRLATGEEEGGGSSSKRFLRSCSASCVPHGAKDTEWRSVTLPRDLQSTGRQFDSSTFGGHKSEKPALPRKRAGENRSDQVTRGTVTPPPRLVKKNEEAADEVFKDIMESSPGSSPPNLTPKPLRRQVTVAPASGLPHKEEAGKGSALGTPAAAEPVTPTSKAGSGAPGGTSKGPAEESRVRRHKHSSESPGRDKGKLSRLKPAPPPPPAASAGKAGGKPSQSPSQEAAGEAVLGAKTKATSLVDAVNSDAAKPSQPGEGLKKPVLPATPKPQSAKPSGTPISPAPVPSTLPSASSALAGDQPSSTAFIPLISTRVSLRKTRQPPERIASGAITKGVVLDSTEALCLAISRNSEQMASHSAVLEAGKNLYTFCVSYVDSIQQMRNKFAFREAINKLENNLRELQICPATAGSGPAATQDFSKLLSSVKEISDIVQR
Chain of SIK3 (Q9Y2K2 whole entry): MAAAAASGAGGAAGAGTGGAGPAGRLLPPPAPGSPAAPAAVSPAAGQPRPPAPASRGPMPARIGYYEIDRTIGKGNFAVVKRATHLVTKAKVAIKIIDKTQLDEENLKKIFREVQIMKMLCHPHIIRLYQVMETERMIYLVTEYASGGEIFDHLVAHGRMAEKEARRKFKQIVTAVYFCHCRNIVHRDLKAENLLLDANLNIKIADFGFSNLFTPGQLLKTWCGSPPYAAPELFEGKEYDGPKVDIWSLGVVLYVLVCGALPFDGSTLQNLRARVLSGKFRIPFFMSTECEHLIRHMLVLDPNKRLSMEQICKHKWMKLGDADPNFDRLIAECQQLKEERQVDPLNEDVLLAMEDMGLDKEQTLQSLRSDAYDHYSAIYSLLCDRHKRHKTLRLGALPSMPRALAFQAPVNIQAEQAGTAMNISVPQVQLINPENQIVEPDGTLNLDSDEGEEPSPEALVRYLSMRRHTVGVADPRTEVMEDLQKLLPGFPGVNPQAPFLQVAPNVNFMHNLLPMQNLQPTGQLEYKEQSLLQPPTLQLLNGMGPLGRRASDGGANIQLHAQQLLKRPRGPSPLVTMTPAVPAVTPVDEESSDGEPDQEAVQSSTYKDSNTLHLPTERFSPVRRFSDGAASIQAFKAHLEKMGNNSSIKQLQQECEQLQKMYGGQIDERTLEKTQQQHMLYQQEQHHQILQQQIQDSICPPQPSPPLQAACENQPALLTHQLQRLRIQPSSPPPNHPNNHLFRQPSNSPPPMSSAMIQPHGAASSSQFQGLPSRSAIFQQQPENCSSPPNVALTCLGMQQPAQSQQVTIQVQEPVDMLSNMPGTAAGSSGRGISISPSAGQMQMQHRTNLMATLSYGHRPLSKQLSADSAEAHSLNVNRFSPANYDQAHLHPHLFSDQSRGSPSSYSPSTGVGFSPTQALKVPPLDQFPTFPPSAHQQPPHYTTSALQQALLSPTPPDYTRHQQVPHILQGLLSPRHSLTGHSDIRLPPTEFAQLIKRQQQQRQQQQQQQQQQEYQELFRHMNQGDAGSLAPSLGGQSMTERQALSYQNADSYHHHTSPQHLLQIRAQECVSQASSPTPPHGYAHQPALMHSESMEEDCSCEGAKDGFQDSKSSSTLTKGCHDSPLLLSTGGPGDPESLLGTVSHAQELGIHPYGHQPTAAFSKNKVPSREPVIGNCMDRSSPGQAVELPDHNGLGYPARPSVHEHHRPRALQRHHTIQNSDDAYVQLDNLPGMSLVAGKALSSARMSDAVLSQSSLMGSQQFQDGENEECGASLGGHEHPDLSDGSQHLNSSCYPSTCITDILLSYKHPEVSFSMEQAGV
Chain of FGFR2 (P21802 22-821): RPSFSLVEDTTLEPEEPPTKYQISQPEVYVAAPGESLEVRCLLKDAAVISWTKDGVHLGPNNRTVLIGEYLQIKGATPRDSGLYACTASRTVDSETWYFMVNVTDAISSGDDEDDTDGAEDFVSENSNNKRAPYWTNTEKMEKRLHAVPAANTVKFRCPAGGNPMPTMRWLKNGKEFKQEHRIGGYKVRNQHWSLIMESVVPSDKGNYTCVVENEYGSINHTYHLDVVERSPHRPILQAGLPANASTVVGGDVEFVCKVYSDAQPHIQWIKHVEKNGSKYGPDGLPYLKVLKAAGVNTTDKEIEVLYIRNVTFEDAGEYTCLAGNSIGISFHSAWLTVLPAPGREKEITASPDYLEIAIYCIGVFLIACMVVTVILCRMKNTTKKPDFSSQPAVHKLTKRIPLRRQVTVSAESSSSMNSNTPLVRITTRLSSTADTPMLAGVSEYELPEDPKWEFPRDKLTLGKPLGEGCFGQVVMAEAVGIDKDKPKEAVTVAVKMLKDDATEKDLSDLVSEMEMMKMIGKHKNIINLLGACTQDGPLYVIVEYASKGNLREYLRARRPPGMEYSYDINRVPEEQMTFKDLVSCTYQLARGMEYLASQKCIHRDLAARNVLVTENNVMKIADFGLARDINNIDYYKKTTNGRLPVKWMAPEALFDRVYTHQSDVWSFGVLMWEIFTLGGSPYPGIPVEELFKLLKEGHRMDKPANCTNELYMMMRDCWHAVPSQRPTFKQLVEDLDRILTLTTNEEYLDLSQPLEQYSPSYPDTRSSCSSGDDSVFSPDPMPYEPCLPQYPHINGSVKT

CN1CCN(c2ccc(Nc3ncc4cc(C#N)c(=O)n(C5CCCC5)c4n3)cc2)CC1 [Narazaciclib, narazaciclib]
anti-AML activity (tumor growth) [1]: significant anti-AML activity
% of Ba/F3-FLT3 (IC50) (Ba/F3-FLT3-ITD): 31.66%
pIC50 (Ba/F3-FLT3-ITD; Mus musculus): 7.02
pIC50 (Ba/F3-EGFR-L718Q): 6.20
pIC50 (M2 primary macrophages; M2-macrophages, read-out: IC50 M2-macrophage proliferation): 7.14
pIC50 (M2 primary macrophages; M-CSF : GM-CSF Ratio 0:100, read-out: IC50 M2-Macrophages Growth Inhibition): 5.44
pIC50 (M2 primary macrophages; M-CSF : GM-CSF Ratio 25:75, read-out: IC50 M2-Macrophages Growth Inhibition): 5.45
pIC50 (M2 primary macrophages; M-CSF : GM-CSF Ratio 50:50, read-out: IC50 M2-Macrophages Growth Inhibition): 5.40
pIC50 (M2 primary macrophages; M-CSF : GM-CSF Ratio 75:25, read-out: IC50 M2-Macrophages Growth Inhibition): 5.43
leukemic load in peripheral blood, spleen and bone marrow (AM8096 AML-PDX; AM8096): reduce the leukemic load in peripheral blood and spleen, but also the leukemic load in bone marrow
leukemic burdens, dose dependence (AM8096 AML-PDX; AM8096, different dose levels): reduced the leukemic burdens in a dose-dependent manner
response of model (AM8096 AML-PDX; AM8096, narazaciclib 100 mg/kg intraperitoneally every day): responded completely
pIC50 (Ba/F3-KRAS-G12C): 6.31
response of model (AM5512 AML-PDX): did not respond
% of Ba/F3-FLT3 (IC50) (Ba/F3-FLT3-ITD (D835Y)): 20.19%
pIC50 (Ba/F3-FLT3-ITD (D835Y); Mus musculus): 7.22
% of Ba/F3-FLT3 (IC50) (Ba/F3-FLT3; Ba/F3-FLT3): 100.00%
pIC50 (Ba/F3-FLT3; Mus musculus, Ba/F3-FLT3 (wild type)): 6.52
pIC50 (CDK9): 7.55
pIC50 (SIK3): 7.62
pIC50 (FGFR3): 6.73
pIC50 (ABL-1): 7.42
pIC50 (FGFR2): 7.70
pIC50 (RET): 7.80
pIC50 (PDGFRα): 6.98
pIC50 (C-Kit): 8.05
pIC50 (PDGFRβ): 8.00
pIC50 (FGFR4): 5.56
